Assay results published in US20110184006A1, “METHOD AND COMPOSITION FOR THERMALLY STABILIZING VITAMIN C WITHIN NANO LAYERS OF MONTMORILLONITE CLAY” (NATIONAL RESEARCH COUNCIL OF SRI LANKA, priority 2010, published 2011).

Columns and labels:
[1] = Thermal stability: FTIR spectra after heating for 30 minutes; type: physicochemical
Experimental: Infrared (IR) spectroscopy was used to quantify samples. Nicolet 6700 FT-IR spectrophotometer was used to measure absorbance or transmittance value of samples. All samples were finely ground and mixed with fused KBr to form pellets in the measurements. Typical parameters included: scan range of 400-4000 cm^−1; resolution 4.00 cm^−1; and the number of scans were 32.
The FTIR spectra of the 0.5000 g calcium montmorillonite chelated with 0.2500 g of LAA heated at 100° C., 120° C., 140° C., 160° C., 180° C. and 200° C. for 30 minutes are shown in FIG. 10. As reference, the FTIR spectra of LAA at room temperature and after heating to 90, 120, 140, 160, 180 and 200° C. for 30 minutes are also shown in FIG. 10.
Further at 140° C., the structure of LAA is altered as the carbonyl stretch at 1750 cm^−1 was broader and the fingerprint region was changed.
First, 0.1000 g samples of the chelated clays were prepared as described in previous examples. Then to determine the thermal stability, 0.1000 g samples of 0.5000 g calcium montmorillonite chelated with 0.0500 g, 0.1000 g, 0.2500 g and 0.5000 g of LAA, were heated in an oven at 90° C. for 30 minutes. Pellets of the cooled samples were prepared with fused KBr and FTIR spectra of these samples were obtained. Reference spectra of the calcium montmorillonite chelated clays before heating were also obtained for comparison. […]

[2] = in blood plasma; cited from earlier work

In the case of `O=C1O[C@H]([C@@H](O)CO)C(O)=C1O` [LAA, L-ascorbic acid], the “structure (FTIR) after heating at 140° C.” value ([1]; 140° C., 30 minutes) is given as “altered”, the “change of structure (FTIR) as the temperature is increased” value ([1]; heated 30 minutes at 90/100 to 200° C.) is given as “changes gradually as the temperature is increased until it is completely destroyed” and the biological half-life [2] is given as “about 30 minutes”.
